{
  "source": "paper PMC11684029",
  "about": "“Discovery of VU6024578/BI02982816: An mGlu1 Positive Allosteric Modulator with Efficacy in Preclinical Antipsychotic and Cognition Models” (Journal of Medicinal Chemistry, 2024)",
  "key": {"dog mGlu1": {"biological_target": "dog mGlu1 (Canis lupus familiaris, UniProt A0A8I3NTE8)", "sequence (A0A8I3NTE8 30-1195)": "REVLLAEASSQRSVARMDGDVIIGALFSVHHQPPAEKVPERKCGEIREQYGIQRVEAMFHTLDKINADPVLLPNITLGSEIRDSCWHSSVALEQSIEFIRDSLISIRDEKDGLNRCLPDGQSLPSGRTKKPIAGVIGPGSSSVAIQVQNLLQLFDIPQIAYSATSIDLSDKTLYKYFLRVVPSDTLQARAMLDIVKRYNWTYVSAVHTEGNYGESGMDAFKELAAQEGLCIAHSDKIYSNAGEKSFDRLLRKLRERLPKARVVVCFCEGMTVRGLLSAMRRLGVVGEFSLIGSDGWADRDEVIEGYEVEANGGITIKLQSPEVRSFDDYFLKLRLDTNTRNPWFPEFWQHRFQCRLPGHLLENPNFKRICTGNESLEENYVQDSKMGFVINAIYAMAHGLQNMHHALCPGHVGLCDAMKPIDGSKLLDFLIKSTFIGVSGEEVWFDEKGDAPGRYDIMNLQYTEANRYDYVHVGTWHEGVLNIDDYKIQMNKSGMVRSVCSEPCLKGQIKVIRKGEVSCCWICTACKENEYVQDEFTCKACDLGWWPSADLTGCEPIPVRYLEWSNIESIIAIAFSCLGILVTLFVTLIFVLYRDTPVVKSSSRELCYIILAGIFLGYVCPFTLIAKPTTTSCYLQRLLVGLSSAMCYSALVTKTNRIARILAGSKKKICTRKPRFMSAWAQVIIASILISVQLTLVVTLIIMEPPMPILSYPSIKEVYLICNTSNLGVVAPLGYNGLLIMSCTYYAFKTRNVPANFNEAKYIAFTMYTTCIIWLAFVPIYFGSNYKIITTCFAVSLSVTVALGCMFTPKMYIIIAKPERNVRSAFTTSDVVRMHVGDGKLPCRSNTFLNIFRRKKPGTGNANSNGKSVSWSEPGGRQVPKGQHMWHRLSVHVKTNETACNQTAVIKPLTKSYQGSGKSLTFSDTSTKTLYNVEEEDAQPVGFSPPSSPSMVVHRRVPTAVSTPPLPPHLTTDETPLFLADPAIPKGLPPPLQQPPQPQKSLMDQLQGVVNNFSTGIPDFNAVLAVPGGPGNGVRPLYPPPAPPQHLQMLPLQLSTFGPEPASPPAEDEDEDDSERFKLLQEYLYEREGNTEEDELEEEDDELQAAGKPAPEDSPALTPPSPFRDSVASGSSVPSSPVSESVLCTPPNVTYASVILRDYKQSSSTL", "test": "mGlu1 PAM assay, dog receptor", "assay_type": "cell-based"}, "IV dog PK": {"test": "IV dog PK", "assay_type": "in vivo", "details": "male, beagle, plasma, 0.5 mg/kg IV; for C0: iv, 0.5 mg/kg", "procedure": "(§1) Deeper profiling began with IV dog PK (0.5 mg/kg, n = 3 male beagles). […] Was this a mechanism-based toxicity in dog? Could there be dog-specific pharmacology of mGlu1 activation? Were these AEs derived from the 19d chemotype? Could a mGlu1/mGlu5 heterodimer be responsible for the observed AEs? […] In an attempt to address the chemotype question, we evaluated PAM 4 (VU6004909),[8] an early generation rodent in vivo tool compound, for the first time in dog PK. […] of the study with 19d, PAM 4 produced no AEs in dog. […] Therefore, more molecular pharmacology and PK studies as well as additional chemically distinct mGlu1 PAM chemotypes are required to understand the AEs elicited by an mGlu1 PAM in dogs, an otherwise very promising target for the treatment of schizophrenia."}, "male beagles": {"test_system": "male beagles", "test": "adverse events in dog PK", "assay_type": "in vivo", "details": "0.5 mg/kg IV", "procedure": "as §1"}, "mGlu4": {"test_system": "mGlu4", "design": "method as in PMID 30116027, PMID 34731619, PMID 35643819, PMID 25137254, PMID 11606768", "details": "Figure 1; cited from earlier work"}},
  "note": "Where two headings read alike, the source gives them in different places.",
  "data": [
    {"compound": "Cc1ccc2c(c1)C(=O)N(c1ccc(NC(=O)c3occc3C)c(F)c1)C2=O", "note": "[Compound 4, reference compound]", "values": [
      {"measurement": "EC50", "setting": "dog mGlu1", "result": 400, "unit": "nM"},
      {"measurement": "half-life", "setting": "IV dog PK", "result": 1010, "unit": "min"},
      {"measurement": "clearance", "setting": "IV dog PK; read-out: CLp", "result": 14, "unit": "mL/min/kg"},
      {"measurement": "Vd", "setting": "IV dog PK; read-out: Vss", "result": 12, "unit": "L/kg"},
      {"measurement": "C0", "setting": "IV dog PK; read-out: C0 exposure, total", "result": 1100, "unit": "nM"},
      {"measurement": "C0", "setting": "IV dog PK; read-out: C0 exposure, unbound", "result": 36.4, "unit": "nM"},
      {"measurement": "adverse events (AEs) in dog", "setting": "male beagles", "result": "no AEs"},
      {"measurement": "selectivity vs. mGlu4", "setting": "mGlu4", "result": "~ 790 fold"}
    ]}
  ]
}
